Reference: US8344008B2 (Janssen Pharmaceutica NV, priority 2007, dated 2013)
Counter-ions that a name gives are not always drawn.

These compounds were tested against T1, recombinant human LTA4 hydrolase (rhLTA4H) (Homo sapiens, UniProt P09960) (assay: Recombinant Human LTA4 Hydrolase Assay for LTA4 Hydrolase Inhibitor Activity). Details: average of results obtained; LTB4 quantified by enzyme-linked immunoassay.
T1 construct: made in house; host or cells: Spodoptera frugiperda (Sf-9) cells, baculovirus (pFastBac1)
T1 sequence (P09960 1-611): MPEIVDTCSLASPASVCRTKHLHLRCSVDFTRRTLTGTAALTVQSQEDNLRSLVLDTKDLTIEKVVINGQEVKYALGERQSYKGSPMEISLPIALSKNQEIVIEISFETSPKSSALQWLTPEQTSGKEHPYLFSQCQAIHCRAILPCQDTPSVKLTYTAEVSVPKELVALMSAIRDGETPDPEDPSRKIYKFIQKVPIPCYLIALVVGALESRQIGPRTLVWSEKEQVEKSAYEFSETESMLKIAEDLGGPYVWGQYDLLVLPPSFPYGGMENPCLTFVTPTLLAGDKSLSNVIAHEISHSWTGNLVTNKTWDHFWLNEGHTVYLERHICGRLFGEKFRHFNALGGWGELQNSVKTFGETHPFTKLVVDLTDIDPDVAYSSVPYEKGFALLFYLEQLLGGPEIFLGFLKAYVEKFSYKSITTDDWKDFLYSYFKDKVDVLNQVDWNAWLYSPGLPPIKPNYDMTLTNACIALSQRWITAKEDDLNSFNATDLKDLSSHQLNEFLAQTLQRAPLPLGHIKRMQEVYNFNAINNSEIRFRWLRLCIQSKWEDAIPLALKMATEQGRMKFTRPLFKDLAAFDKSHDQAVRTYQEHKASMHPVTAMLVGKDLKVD
Assay type: biochemical
Procedure: Biological Methods: Recombinant Human LTA4 Hydrolase Assay for LTA4 Hydrolase Inhibitor Activity
Compounds of the present invention were tested for LTA4 hydrolase inhibitor activity against recombinant human LTA4 hydrolase (rhLTA4H). Vectors were prepared and used to express rhLTA4H essentially as follows: LTA4 hydrolase encoding DNA was amplified by polymerase chain reaction (PCR) using a human placental cDNA library as a template. Oligonucleotide primers for the PCR reaction were based on the 5′-end, and the complement of the 3′-end, of the published nucleotide sequence for the coding region of the human LTA4 hydrolase gene (C. D. Funk et al., Proc. Natl. Acad. Sci. USA 1987, 84:6677-6681). The amplified 1.9 kb DNA fragment encoding LTA4 hydrolase was isolated and cloned into the pFastBac1 vector (Invitrogen). Recombinant baculovirus was generated as described by the manufacturer, and used to infect Spodoptera frugiperda (Sf-9) cells. Recombinant LTA4 hydrolase enzyme was purified from the infected Sf-9 cells essentially as described by J. K. Gierse et al. (Protein Expression and Purification 1993, 4:358-366). The purified enzyme solution was adjusted to contain 0.29 mg/mL LTA4 hydrolase, 50 mM Tris (pH 8.0), 150 mM NaCl, 5 mM dithiothreitol, 50% glycerol, and EDTA-free Complete protease inhibitor cocktail (Roche). The specific activity of the enzyme was about 3.8 μmol/min/mg.
LTA4 substrate was prepared from the methyl ester of LTA4 (Cayman Chemical) by treatment with 67 equiv of NaOH under nitrogen at rt for 40 min. The LTA4 substrate in its free acid form was kept frozen at −80° C. until needed. Each compound was diluted to different concentrations in assay buffer (0.1 M potassium phosphate (pH 7.4), 5 mg/mL fatty acid free BSA) containing 10% DMSO. A 25-uL aliquot of each compound dilution was incubated for 10 min at rt with an equal volume of assay buffer containing 36 ng of recombinant human LTA4H. The solution was then adjusted to 200 μL with assay buffer. LTA4 (free acid) was thawed and diluted in assay buffer to a concentration of 357 ng/mL, and 25 μL (9 ng) of LTA4 substrate was added to the reaction mixture (total volume=225 μL) at time zero. Each reaction was carried out at rt for 10 min. The reaction was stopped by diluting 10 μL of the reaction mixture with 200 μL of assay buffer. LTB4 was quantified in the diluted sample by a commercially available enzyme-linked immunoassay (Cayman Chemical Co.), as recommended by the manufacturer. Positive controls, under essentially identical conditions but without addition of an inhibitor compound, and negative controls, containing all assay components except enzyme, were routinely run in each experiment. […]
Results for the compounds tested in this assay are presented in Table 1 as an average of results obtained.
A Ki of 35 nM was found for `NC(=O)N1CC2CCN(Cc3ccc(Oc4nc5ccccc5s4)cc3)CC2C1` (racemic) [Example 141, (±)-5-[4-(Benzothiazol-2-yloxy)-benzyl]-octahydro-pyrrolo[3,4-c]pyridine-2-carboxylic acid amide] in this work. A Ki of 53 nM was found for `NC(=O)N1CC2CCN(Cc3ccc(Oc4nc5ccccc5s4)cc3)CC2C1` (single isomer, unassigned; (+)) [Example 142A, (+)-5-[4-(Benzothiazol-2-yloxy)-benzyl]-octahydro-pyrrolo[3,4-c]pyridine-2-carboxylic acid amide] in this work. A Ki of 95 nM was found for `NC(=O)N1CC2CCN(Cc3ccc(Oc4nc5ccccc5s4)cc3)CC2C1` (single isomer, unassigned; (-)) [Example 142B, (−)-5-[4-(Benzothiazol-2-yloxy)-benzyl]-octahydro-pyrrolo[3,4-c]pyridine-2-carboxylic acid amide] in this work. A Ki of 6 nM was found for `CC(=O)N1C[C@@H]2C[C@H]1CN2Cc1ccc(Oc2nc3ccccc3s2)cc1` [Example 1, (S,S)-1-{5-[4-(Benzothiazol-2-yloxy)-benzyl]-2,5-diaza-bicyclo[2.2.1]hept-2-yl}-ethanone] in this work. A Ki of 54 nM was found for `c1ccc2sc(Oc3ccc(CN4C[C@@H]5C[C@H]4CN5)cc3)nc2c1` [Example 1B, (S,S)-2-[4-(2,5-Diaza-bicyclo[2.2.1]hept-2-ylmethyl)-phenoxy]-benzothiazole hydrochloride] in this work. A Ki of 508 nM was found for `CC(=O)N1C[C@@H]2C[C@H]1CN2Cc1cccc(Oc2nc3ccccc3s2)c1` [Example 2, (S,S)-1-{5-[3-(Benzothiazol-2-yloxy)-benzyl]-2,5-diaza-bicyclo[2.2.1]hept-2-yl}-ethanone] in this work. A Ki of 7 nM was found for `CC(=O)N1C[C@H]2C[C@@H]1CN2Cc1ccc(Oc2nc3ccccc3s2)cc1` [Example 3, (R,R)-1-{5-[4-(Benzothiazol-2-yloxy)-benzyl]-2,5-diaza-bicyclo[2.2.1]hept-2-yl}-ethanone] in this work. A Ki of 163 nM was found for `CC(=O)N1C[C@@H]2C[C@H]1CN2Cc1ccc(Cc2nc3ccccc3s2)cc1` [Example 4, (S,S)-1-[5-(4-Benzothiazol-2-ylmethyl-benzyl)-2,5-diaza-bicyclo[2.2.1]hept-2-yl]-ethanone] in this work. A Ki of 260 nM was found for `c1ccc2sc(Cc3ccc(CN4C[C@@H]5C[C@H]4CN5)cc3)nc2c1` [Example 4D, (S,S)-2-[4-(2,5-Diaza-bicyclo[2.2.1]hept-2-ylmethyl)-benzyl]-benzothiazole dihydrochloride] in this work. A Ki of 35 nM was found for `CC(=O)N[C@H]1C[C@H]2CC[C@@H](C1)N2Cc1ccc(Cc2nc3ccccc3s2)cc1` [Example 5, meso-endo-N-[8-(4-Benzothiazol-2-ylmethyl-benzyl)-8-aza-bicyclo[3.2.1]oct-3-yl]-acetamide] in this work. A Ki of 50 nM was found for `CC(=O)N[C@H]1C[C@H]2CC[C@@H](C1)N2Cc1ccc(Cc2nc3ccccc3o2)cc1` [Example 6, meso-endo-N-[8-(4-Benzooxazol-2-ylmethyl-benzyl)-8-aza-bicyclo[3.2.1]oct-3-yl]-acetamide] in this work. A Ki of 13 nM was found for `CC(=O)N1C[C@@H]2C[C@H]1CN2CCc1ccc(Oc2nc3ccccc3s2)cc1` [Example 7, (S,S)-1-(5-{2-[4-(Benzothiazol-2-yloxy)-phenyl]-ethyl}-2,5-diaza-bicyclo[2.2.1]hept-2-yl)-ethanone] in this work. A Ki of 10 nM was found for `c1ccc2sc(Oc3ccc(CCN4C[C@@H]5C[C@H]4CN5)cc3)nc2c1` [Example 7B, (S,S)-2-{4-[2-(2,5-Diaza-bicyclo[2.2.1]hept-2-yl)-ethyl]-phenoxy}-benzothiazole hydrochloride] in this work. A Ki of 206 nM was found for `CC(=O)N1C[C@@H]2C[C@H]1CN2CCc1cccc(Oc2nc3ccccc3s2)c1` [Example 8, (S,S)-1-(5-{2-[3-(Benzothiazol-2-yloxy)-phenyl]-ethyl}-2,5-diaza-bicyclo[2.2.1]hept-2-yl)-ethanone] in this work. A Ki of 3 nM was found for `CC(=O)N1C[C@@H]2C[C@H]1CN2CCOc1ccc(Oc2nc3ccccc3s2)cc1` [Example 9, (S,S)-1-(5-{2-[4-(Benzothiazol-2-yloxy)-phenoxy]-ethyl}-2,5-diaza-bicyclo[2.2.1]hept-2-yl)-ethanone] in this work.
